Like-named read-outs stand apart in the source and are kept apart here.
Assays:
5-HT6 = test system: 5-HT6; set-up: method as in Dupuis et al. (2008) [31]; conditions: Figure 8; ref Dupuis et al. (2008) [31]; cited from earlier work
5-HT6R = 5-HT6R (Homo sapiens, UniProt P50406); assay: Radioligand binding assay, [3H]-LSD displacement
D2R = D2R (Homo sapiens, UniProt P14416); assay: Radioligand binding assay, [3H]-raclopride displacement; conditions: for Ki: pKi D2, Table 1
5-HT1AR = target: T1, 5-HT1AR (Homo sapiens, UniProt P08908); assay: Radioligand binding assay, [3H]-8-OH-DPAT displacement
T1 sequence (P08908 1-422): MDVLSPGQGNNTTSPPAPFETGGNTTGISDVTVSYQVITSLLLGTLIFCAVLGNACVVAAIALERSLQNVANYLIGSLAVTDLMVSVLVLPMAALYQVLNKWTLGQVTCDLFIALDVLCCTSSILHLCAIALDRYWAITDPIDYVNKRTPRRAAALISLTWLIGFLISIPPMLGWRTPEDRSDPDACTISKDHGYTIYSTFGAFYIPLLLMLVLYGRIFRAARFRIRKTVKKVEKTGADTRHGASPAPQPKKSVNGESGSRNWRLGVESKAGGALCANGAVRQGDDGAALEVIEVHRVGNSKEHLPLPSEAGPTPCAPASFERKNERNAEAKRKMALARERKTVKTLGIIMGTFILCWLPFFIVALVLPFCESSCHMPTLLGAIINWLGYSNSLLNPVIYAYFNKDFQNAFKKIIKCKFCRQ

5-HT2AR = 5-HT2AR (Homo sapiens, UniProt P28223); assay: Radioligand binding assay, [3H]-ketanserin displacement; set-up: host or cells: CHO-K1; membrane preparation; conditions: Table 1
Sequence of 5-HT2AR (P28223 whole entry): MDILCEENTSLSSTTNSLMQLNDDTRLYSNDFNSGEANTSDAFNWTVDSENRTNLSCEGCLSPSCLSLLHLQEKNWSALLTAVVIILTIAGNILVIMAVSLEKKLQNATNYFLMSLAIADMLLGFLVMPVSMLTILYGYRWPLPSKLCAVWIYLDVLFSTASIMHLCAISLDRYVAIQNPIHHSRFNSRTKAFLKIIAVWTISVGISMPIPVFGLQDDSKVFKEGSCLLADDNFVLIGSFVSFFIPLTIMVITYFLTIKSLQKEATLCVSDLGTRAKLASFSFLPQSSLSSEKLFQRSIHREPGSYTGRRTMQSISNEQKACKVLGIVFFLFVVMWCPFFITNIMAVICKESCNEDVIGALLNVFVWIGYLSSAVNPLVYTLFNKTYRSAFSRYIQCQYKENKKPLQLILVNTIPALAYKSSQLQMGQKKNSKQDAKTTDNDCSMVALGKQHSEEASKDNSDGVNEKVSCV

5-HT7R = 5-HT7R (Homo sapiens, UniProt P34969); assay: Radioligand binding assay, [3H]-5-CT displacement
Sequence of 5-HT7R (P34969 1-432): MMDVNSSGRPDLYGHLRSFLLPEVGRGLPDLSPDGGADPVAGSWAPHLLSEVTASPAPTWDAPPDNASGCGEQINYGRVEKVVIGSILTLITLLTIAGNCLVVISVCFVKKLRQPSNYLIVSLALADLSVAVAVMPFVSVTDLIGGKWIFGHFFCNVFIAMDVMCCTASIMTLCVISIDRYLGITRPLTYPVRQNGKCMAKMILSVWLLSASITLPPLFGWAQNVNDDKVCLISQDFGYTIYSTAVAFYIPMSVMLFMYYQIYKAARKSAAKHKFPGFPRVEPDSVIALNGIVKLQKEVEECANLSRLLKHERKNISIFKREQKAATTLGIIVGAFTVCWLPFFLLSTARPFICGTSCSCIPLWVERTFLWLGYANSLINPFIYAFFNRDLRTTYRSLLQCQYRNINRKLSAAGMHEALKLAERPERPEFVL

[1] = read-out: pKi 5-HT2A (converted)

SMILES: O=C1CCc2ccc(OCCCCN3CCN(c4cccc(Cl)c4Cl)CC3)cc2N1 [Aripiprazole]
- Kb (5-HT6): […]

Sequence of 5-HT6R (P50406 whole entry): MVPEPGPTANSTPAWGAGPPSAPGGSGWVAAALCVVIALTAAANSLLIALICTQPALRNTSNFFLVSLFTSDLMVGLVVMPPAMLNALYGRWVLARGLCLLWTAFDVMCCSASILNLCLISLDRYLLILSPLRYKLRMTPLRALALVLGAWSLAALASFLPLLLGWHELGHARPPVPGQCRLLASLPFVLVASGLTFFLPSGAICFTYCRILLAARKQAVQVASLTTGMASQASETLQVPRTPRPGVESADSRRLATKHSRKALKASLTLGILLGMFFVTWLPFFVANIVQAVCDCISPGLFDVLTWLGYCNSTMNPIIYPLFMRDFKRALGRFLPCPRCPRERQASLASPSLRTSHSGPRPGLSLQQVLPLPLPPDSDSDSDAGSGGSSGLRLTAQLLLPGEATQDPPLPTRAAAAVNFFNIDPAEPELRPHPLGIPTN
Sequence of D2R (P14416 whole entry): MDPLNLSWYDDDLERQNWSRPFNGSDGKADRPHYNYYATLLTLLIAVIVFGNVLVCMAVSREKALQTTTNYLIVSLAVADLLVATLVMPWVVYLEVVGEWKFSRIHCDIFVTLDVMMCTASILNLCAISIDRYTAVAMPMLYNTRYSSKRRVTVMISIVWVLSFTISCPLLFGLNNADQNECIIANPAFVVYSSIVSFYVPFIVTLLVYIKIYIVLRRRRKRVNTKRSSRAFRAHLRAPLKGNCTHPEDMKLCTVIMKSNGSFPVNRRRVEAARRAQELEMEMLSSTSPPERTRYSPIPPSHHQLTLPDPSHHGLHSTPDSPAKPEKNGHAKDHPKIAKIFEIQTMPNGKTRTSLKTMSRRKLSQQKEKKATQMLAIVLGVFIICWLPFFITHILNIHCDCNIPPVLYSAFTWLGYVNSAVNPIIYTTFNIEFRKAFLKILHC

SMILES: Cc1ccc2[nH]cc(CCNCc3c[nH]c4ccccc34)c2c1 [Compound 2]
- Ki (5-HT6R; pKi 5-HT6, Table 1): 129 nM
- Ki (D2R): > 10 µM
- Ki (5-HT1AR; pKi 5-HT1A, Table 1): 692 nM
- Ki (5-HT2AR; [1]): 562 nM
- Ki (5-HT7R): 2.95 µM

SMILES: COc1ccc2[nH]cc(CCNCc3c[nH]c4ccccc34)c2c1 [Compound 3]
- Ki (5-HT6R; pKi 5-HT6, Table 1): 117 nM
- pKi D2 (D2R; Table 1): 6.49
- Ki (5-HT1AR; Ki 5-HT1AR): 156 nM
- Ki (5-HT1AR; pKi 5-HT1A, Table 1): 155 nM
- Ki (5-HT2AR; pKi 5-HT2A): 83.2 nM
- Ki (5-HT7R): 0.562 µM

SMILES: Clc1ccc2[nH]cc(CCNCc3c[nH]c4ccccc34)c2c1 [Compound 4]
- Ki (5-HT6R; pKi 5-HT6, Table 1): 107 nM
- Ki (D2R): 2.45 µM

SMILES: Fc1cccc2c(CCNCc3c[nH]c4ccccc34)c[nH]c12 [Compound 6]
- Ki (5-HT6R; Ki 5-HT6, Figure 8): 168 nM
- Ki (5-HT6R; pKi 5-HT6, Table 1): 170 nM
- Ki (D2R): 2.95 µM
- Ki (5-HT1AR; pKi 5-HT1A, Table 1): 2750 nM
- Ki (5-HT2AR; [1]): 380 nM
- Ki (5-HT7R): 10.2 µM

SMILES: Clc1cccc2c(CCNCc3c[nH]c4ccccc34)c[nH]c12 [Compound 7]
- Ki (5-HT6R; Ki 5-HT6, Figure 8): 133 nM
- Ki (5-HT6R; pKi 5-HT6, Table 1): 132 nM
- Ki (D2R): 11.7 µM
- Ki (5-HT1AR; pKi 5-HT1A, Table 1): 5130 nM
- Ki (5-HT2AR; [1]): 631 nM
- Ki (5-HT7R): 25.1 µM

SMILES: Brc1cccc2c(CCNCc3c[nH]c4ccccc34)c[nH]c12 [Compound 8]
- Ki (5-HT6R; Ki 5-HT6, Figure 8): 161 nM
- Ki (5-HT6R; pKi 5-HT6, Table 1): 162 nM
- Ki (D2R): 3.02 µM
- Ki (5-HT1AR; pKi 5-HT1A, Table 1): 6030 nM
- Ki (5-HT2AR; [1]): 776 nM
- Ki (5-HT7R): 20.4 µM

SMILES: Oc1ccc2[nH]cc(CNCCc3c[nH]c4ccccc34)c2c1 [Compound 9]
- Ki (5-HT6R; pKi 5-HT6, Table 1): 2240 nM
- Ki (D2R): 7.59 µM
- Ki (5-HT1AR; pKi 5-HT1A, Table 1): 2880 nM
- Ki (5-HT2AR; [1]): 1950 nM
- Ki (5-HT7R): 5.13 µM

SMILES: Fc1ccc2[nH]cc(CNCCc3c[nH]c4ccccc34)c2c1 [Compound 10]
- Ki (5-HT6R; pKi 5-HT6, Table 1): 407 nM
- Ki (D2R): 8.51 µM
- Ki (5-HT1AR; pKi 5-HT1A, Table 1): 490 nM
- Ki (5-HT2AR; [1]): 3470 nM
- Ki (5-HT7R): 4.79 µM

SMILES: Clc1ccc2[nH]cc(CNCCc3c[nH]c4ccccc34)c2c1 [Compound 11]
- Ki (5-HT6R; pKi 5-HT6, Table 1): 513 nM
- Ki (D2R): 2.09 µM
- Ki (5-HT1AR; pKi 5-HT1A, Table 1): 676 nM
- Ki (5-HT2AR; [1]): 3240 nM
- Ki (5-HT7R): 3.8 µM

— PMC8347595, “N-Skatyltryptamines—Dual 5-HT6R/D2R Ligands with Antipsychotic and Procognitive Potential” (Molecules, 2021)
